Laboratory results published in patent publication EP0180309B2, “Improved disinfecting and preserving solutions for contact lenses and methods of use” (priority 1984, dated 1986).

Tested on: L-929 mouse fibroblast cells
Assay type: cell-based
Conditions: 10 ppm
Procedure: Comparative studies are conducted to evaluate the cytotoxicity of individual aqueous lens disinfecting and preservative solutions containing PHMB, benzalkonium chloride and chlorhexidine. The studies utilize the Agar Overlay Assay Technique published in the Journal of Pharmaceutical Sciences, Vol. 54 (1965) pp 1545-1547 by W. L. Guess et al. The technique utilized is similar to the Zone of Inhibition Method of Otten et al (Example VII), however, when the lenses are removed from the preservative solutions they are only rinsed with isotonic saline solution to remove residual preservative. The lenses are then placed on L-929 mouse fibroblast cells to ascertain the presence of any cytotoxic response or cell inflammation which is noted by a lysing of the cells.

SMILES: [H]/N=C(\N/C(=N/[H])NCCCCCCNC(=N)NC(=N)Nc1ccc(Cl)cc1)Nc1ccc(Cl)cc1 [Chlorhexidine, chlorhexidine gluconate]
- Percent Cells Lysed: 0/0
- Width of Decolorized Zone: 0/0
